Source: patent publication US12351656B2, “Functionalized and crosslinked polymers” (PMIDG, LLC, priority 2017, dated 2025)
Counter-ions that a name gives are not always drawn.

Tests used:
[1] = Bupivacaine release from FeCl3-crosslinked gels (HPLC); assay type: physicochemical; details: FeCl3-crosslinked 4% (w/v) gel with bupivacaine hydrochloride monohydrate, 2% SDS in PBS pH 7.4, 37° C.
Procedure: Sodium hyaluronate (1.4 m3/kg, approx. 800 kDa) and HA derivatives comprising mercaptosuccinic acid and thiophenol, as described in Example 60 and 61, were diluted to 4% (w/v) concentrations in deionized water and mixed with bupivacaine hydrochloride monohydrate (Sigma Aldrich B5274). The polymers were crosslinked using the addition of 2% FeCl3 solution in deionized water for 1:1 linking of carboxyl groups of sodium hyaluronate and chloride of FeCl3 and pH of the gels was adjusted to 6.5-7.5 using 0.25M NaOH solution. The release study buffer applied to each sample consisted of 2% (w/v) sodium dodecyl sulfate (SDS) dissolved in Phosphate buffered saline (pH 7.4, Sigma P3813). All samples were incubated at 37° C. and sampled for testing over 96 hours. For each timepoint, 0.25 ml of the sample was combined with 5 ml MeOH and then filtered through a 0.45 μm filter prior to analyzing using HPLC with a C18 column and 30:70 phosphate buffer (pH 5.0):methanol as mobile phase at 0.6 ml/min flow rate. The chromatogram was collected using a photodiode array detector at 205 nm and the amount of bupivacaine released was calculated from integral value of peak at the retention time of 7.1 minutes based on calibration performed previously.

[2] = Vancomycin hydrochloride release from FeCl3-crosslinked gels (HPLC); assay type: physicochemical; details: FeCl3-crosslinked 4% (w/v) gel, vancomycin hydrochloride 10% (w/w), PBS pH 7.4, 37° C.
Procedure: Sodium hyaluronate (1.4 m3/kg, approx. 800 kDa) and HA derivatives comprising mercaptosuccinic acid and thiophenol, as described in Example 59 and 60 were diluted to 4% (w/v) concentrations in deionized water and mixed with vancomycin hydrochloride (Sigma Aldrich PHR1732) at 10% (w/w) loading. The polymers were crosslinked using the addition of 2% FeCl3 solution (crosslinking agent) in deionized water for 1:1 linking of carboxyl groups of sodium hyaluronate and chloride of FeCl3 and pH of the gels was adjusted to 6.5-7.5 using 0.25M NaOH solution. The release study buffer applied to each sample consisted of phosphate buffered saline (pH 7.4, Sigma P3813). […] For each timepoint, 0.25 ml of the sample was combined with 5 ml H2O and then filtered through a 0.45 μm filter prior to analyzing using HPLC with a C18 column and 85:15 phosphate buffer (pH 3.0):methanol as mobile phase at 0.8 ml/min flow rate. The chromatogram was collected using a photodiode array detector at 205 nm and the amount of vancomycin hydrochloride released was calculated from integral value of peak at the retention time of 11.3 minutes based on calibration performed previously.

| % Bupivacaine Released ([1]; 0 hours) [%] | % Bupivacaine Released ([1]; 1 hour) [%] | % Bupivacaine Released ([1]; 3 hours) [%] | % Bupivacaine Released ([1]; 6 hours) [%] | % Bupivacaine Released ([1]; 24 hours) [%] | SMILES | % Vancomycin Hydrochloride Release ([2]; 0 hours) [%] | % Vancomycin Hydrochloride Release ([2]; 1 hour) [%] | % Vancomycin Hydrochloride Release ([2]; 3 hours) [%] | % Vancomycin Hydrochloride Release ([2]; 6 hours) [%] | % Vancomycin Hydrochloride Release ([2]; 24 hours) [%] | % Vancomycin Hydrochloride Release ([2]; 96 hours) [%] |
| --- | --- | --- | --- | --- | --- | --- | --- | --- | --- | --- | --- |
| 0.00 | 72.54 | 70.10 | 71.43 | 83.46 | CCCCN1CCCCC1C(=O)Nc1c(C)cccc1C (centres unmarked) [Bupivacaine, bupivacaine hydrochloride monohydrate] |  |  |  |  |  |  |
|  |  |  |  |  | CN[C@H](CC(C)C)C(=O)N[C@H]1C(=O)N[C@@H](CC(N)=O)C(=O)N[C@H]2C(=O)N[C@H]3C(=O)N[C@H](C(=O)N[C@H](C(=O)O)c4cc(O)cc(O)c4-c4cc3ccc4O)[C@H](O)c3ccc(c(Cl)c3)Oc3cc2cc(c3O[C@@H]2O[C@H](CO)[C@@H](O)[C@H](O)[C@H]2O[C@H]2C[C@](C)(N)[C@H](O)[C@H](C)O2)Oc2ccc(cc2Cl)[C@H]1O [Vancomycin, vancomycin hydrochloride] | 0.00 | 98.03 | 95.40 | 92.08 | 90.70 | 72.11 |
